# Assay results: patent US20210121527A1, “METHODS OF TREATING MINIMAL RESIDUAL CANCER” (ICAHN SCHOOL OF MEDICINE AT MOUNT SINAI, priority 2018, published 2021)
# Tests used:
# Experiment in all cases: DiscoveRx scanMAX kinase profiling
# Type in all cases: binding
# [1] = target: T1, AKT2 (Homo sapiens, UniProt P31751); conditions: read-out: Direct inhibitory activity on AKT2 (KINOMEscan)
# T1 construct: purchased DiscoverX (San Diego, Calif.) scanMAX
# Description: (§1) Biochemical assays: Recombinant human EIF2AK3 (PERK) catalytic domain (amino acids 536-1116; Cat # PV5107), GFP-eIF2a (Cat # PV4809) substrate, and Terbium-labelled phospho-eIF2a antibody (Cat # PR8956B) were purchased from Invitrogen (Carlsbad, Calif.). HIS-SUMO-GCN2 catalytic domain (amino acids 584-1019) was expressed and purified from E. coli. TR-FRET kinase assays were performed in the absence or presence of inhibitors in a reaction buffer consisting of 50 mM HEPES, pH 7.5, 10 mMMgCl2, 1.0 mM EGTA, and 0.01% Brij-35, and 100-200 nM GFP-eIF2a substrate. […] Following the addition of test compound, the reaction was initiated by addition of enzyme and incubated at room temperature for 45 minutes. The reaction was stopped by addition of EDTA to a final concentration of 10 mM and Terbium-labelled phospho-eIF2α antibody was added at a final concentration of 2 nM and incubated for 90 minutes. The resulting fluorescence was monitored in an EnVison® Multilabel reader (PerkinElmer, Waltham, Mass.). TR-FRET ratios and the resulting IC50 values were determined from the fitted inhibition curves. Biochemical specificity profiling was performed at Cerep (Redmond, Wash.) and DiscoverX (San Diego, Calif.).
# [2] = target: T2, AKT3 (Homo sapiens, UniProt Q9Y243); conditions: read-out: Direct inhibitory activity on AKT3 (KINOMEscan)
# T2 construct: purchased DiscoverX (San Diego, Calif.) scanMAX
# Description: as §1
# [3] = target: T3, CSK (Homo sapiens, UniProt P41240); conditions: read-out: Direct inhibitory activity on CSK (KINOMEscan)
# T3 construct: purchased DiscoverX (San Diego, Calif.)
# Description: as §1
# [4] = target: T4, EGFR (Homo sapiens, UniProt P00533); conditions: read-out: Direct inhibitory activity on EGFR (KINOMEscan)
# T4 construct: purchased DiscoverX (San Diego, Calif.) scanMAX
# Description: as §1
# [5] = target: T5, ERBB3 (Homo sapiens, UniProt P21860); conditions: read-out: Direct inhibitory activity on ERBB3 (KINOMEscan)
# T5 construct: purchased DiscoverX (San Diego, Calif.) scanMAX
# Description: as §1
# [6] = target: T6, ERBB4 (Homo sapiens, UniProt Q15303); conditions: read-out: Direct inhibitory activity on ERBB4 (KINOMEscan)
# T6 construct: purchased DiscoverX (San Diego, Calif.) scanMAX
# Description: as §1
# [7] = target: T7, ERK1 (MAPK3) (Homo sapiens, UniProt P27361); conditions: read-out: Direct inhibitory activity on ERK1 (KINOMEscan)
# T7 construct: purchased DiscoverX (San Diego, Calif.) scanMAX
# Description: as §1
# [8] = target: T8, ERK2 (MAPK1) (Homo sapiens, UniProt P28482); conditions: read-out: Direct inhibitory activity on ERK2 (KINOMEscan)
# T8 construct: purchased DiscoverX (San Diego, Calif.) scanMAX
# Description: as §1
# [9] = target: T9, ERK3 (MAPK6) (Homo sapiens, UniProt Q16659); conditions: read-out: Direct inhibitory activity on ERK3 (KINOMEscan)
# T9 construct: purchased DiscoverX (San Diego, Calif.) scanMAX
# Description: as §1
# [10] = target: T10, ERK8 (MAPK15) (Homo sapiens, UniProt Q8TD08); conditions: read-out: Direct inhibitory activity on ERK8 (KINOMEscan)
# T10 construct: purchased DiscoverX (San Diego, Calif.) scanMAX
# T10 sequence (Q8TD08 1-544): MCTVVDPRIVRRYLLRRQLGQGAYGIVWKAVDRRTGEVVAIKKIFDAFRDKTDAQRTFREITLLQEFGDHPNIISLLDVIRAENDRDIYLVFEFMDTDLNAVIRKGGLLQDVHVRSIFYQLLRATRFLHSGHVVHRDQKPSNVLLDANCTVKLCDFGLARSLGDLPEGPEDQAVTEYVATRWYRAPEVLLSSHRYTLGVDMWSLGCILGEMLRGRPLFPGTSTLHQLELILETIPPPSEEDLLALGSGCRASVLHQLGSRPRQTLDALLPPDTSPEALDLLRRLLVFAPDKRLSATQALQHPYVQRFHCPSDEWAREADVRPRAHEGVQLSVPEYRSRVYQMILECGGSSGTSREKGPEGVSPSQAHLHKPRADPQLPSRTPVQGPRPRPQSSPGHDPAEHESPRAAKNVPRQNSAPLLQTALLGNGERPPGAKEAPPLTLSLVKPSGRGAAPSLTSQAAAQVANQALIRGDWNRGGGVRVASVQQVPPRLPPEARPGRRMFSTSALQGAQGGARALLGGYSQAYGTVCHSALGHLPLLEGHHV
# Description: as §1
# [11] = target: T11, PIK3CA (Homo sapiens, UniProt P42336); conditions: read-out: Direct inhibitory activity on PIK3CA (KINOMEscan)
# T11 construct: purchased DiscoverX (San Diego, Calif.)
# Description: as §1
# [12] = target: T12, PIK3CB (Homo sapiens, UniProt P42338); conditions: read-out: Direct inhibitory activity on PIK3CB (KINOMEscan)
# T12 construct: purchased DiscoverX (San Diego, Calif.)
# Description: as §1
# [13] = target: T13, S6K1 (RPS6KB1) (Homo sapiens, UniProt P23443); conditions: read-out: Direct inhibitory activity on S6K1 (KINOMEscan)
# T13 construct: purchased DiscoverX (San Diego, Calif.) scanMAX
# Description: as §1
# [14] = target: T14, SYK (Homo sapiens, UniProt P43405); conditions: read-out: Direct inhibitory activity on SYK (KINOMEscan)
# T14 construct: purchased DiscoverX (San Diego, Calif.) scanMAX
# Description: as §1
# T9 sequence (Q16659 whole entry): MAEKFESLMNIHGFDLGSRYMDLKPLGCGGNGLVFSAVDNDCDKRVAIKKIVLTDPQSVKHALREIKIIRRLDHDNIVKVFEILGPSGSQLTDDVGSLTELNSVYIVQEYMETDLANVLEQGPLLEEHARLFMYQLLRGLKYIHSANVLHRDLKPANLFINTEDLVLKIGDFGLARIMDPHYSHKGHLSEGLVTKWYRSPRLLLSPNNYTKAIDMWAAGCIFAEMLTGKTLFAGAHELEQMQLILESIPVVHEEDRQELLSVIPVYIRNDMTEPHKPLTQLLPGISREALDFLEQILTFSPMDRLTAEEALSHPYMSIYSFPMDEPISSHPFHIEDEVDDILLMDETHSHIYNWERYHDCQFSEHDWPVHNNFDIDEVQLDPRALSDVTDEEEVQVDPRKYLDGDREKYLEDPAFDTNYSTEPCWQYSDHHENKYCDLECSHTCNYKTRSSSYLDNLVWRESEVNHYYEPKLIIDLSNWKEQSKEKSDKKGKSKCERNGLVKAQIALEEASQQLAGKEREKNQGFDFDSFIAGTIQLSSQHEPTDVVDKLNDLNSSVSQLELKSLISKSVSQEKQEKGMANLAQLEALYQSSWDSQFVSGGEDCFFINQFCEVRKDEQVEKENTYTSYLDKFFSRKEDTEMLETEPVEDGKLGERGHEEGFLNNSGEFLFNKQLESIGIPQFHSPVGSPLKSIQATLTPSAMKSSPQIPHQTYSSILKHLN
# T5 sequence (P21860 20-1342): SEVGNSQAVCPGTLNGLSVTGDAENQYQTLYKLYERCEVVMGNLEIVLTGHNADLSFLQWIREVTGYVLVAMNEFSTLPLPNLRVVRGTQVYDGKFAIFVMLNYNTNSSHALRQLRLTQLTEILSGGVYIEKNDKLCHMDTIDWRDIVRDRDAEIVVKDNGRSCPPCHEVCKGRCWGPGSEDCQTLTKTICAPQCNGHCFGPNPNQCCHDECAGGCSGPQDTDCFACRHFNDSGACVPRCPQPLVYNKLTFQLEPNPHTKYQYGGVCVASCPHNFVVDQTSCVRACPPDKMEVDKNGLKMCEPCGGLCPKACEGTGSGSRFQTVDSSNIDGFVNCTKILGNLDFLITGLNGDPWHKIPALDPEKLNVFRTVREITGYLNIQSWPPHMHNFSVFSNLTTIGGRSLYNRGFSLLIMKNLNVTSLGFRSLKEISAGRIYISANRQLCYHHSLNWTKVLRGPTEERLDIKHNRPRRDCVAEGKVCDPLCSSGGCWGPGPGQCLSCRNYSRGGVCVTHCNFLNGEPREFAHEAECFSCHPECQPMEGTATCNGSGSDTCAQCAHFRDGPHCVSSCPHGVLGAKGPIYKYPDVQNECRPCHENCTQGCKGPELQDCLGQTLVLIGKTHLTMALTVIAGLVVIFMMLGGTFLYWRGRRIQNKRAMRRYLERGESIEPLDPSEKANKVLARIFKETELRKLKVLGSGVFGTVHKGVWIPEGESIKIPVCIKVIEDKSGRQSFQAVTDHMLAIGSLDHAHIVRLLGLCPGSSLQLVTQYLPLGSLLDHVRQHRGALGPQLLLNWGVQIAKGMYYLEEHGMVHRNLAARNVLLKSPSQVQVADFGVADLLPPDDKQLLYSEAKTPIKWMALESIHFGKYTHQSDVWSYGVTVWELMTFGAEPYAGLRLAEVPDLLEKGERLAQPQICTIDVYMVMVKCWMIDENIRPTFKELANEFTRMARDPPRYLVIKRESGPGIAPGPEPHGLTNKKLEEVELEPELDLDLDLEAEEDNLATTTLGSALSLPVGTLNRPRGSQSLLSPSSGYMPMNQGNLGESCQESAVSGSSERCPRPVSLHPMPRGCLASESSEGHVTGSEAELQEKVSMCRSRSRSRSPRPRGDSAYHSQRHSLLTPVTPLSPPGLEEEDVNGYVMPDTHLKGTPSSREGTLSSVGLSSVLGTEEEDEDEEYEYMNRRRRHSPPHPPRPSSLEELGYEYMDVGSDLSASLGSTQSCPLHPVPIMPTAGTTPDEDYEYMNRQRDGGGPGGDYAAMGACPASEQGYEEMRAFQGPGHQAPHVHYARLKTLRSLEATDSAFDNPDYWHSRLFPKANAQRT
# T4 sequence (P00533 25-1210): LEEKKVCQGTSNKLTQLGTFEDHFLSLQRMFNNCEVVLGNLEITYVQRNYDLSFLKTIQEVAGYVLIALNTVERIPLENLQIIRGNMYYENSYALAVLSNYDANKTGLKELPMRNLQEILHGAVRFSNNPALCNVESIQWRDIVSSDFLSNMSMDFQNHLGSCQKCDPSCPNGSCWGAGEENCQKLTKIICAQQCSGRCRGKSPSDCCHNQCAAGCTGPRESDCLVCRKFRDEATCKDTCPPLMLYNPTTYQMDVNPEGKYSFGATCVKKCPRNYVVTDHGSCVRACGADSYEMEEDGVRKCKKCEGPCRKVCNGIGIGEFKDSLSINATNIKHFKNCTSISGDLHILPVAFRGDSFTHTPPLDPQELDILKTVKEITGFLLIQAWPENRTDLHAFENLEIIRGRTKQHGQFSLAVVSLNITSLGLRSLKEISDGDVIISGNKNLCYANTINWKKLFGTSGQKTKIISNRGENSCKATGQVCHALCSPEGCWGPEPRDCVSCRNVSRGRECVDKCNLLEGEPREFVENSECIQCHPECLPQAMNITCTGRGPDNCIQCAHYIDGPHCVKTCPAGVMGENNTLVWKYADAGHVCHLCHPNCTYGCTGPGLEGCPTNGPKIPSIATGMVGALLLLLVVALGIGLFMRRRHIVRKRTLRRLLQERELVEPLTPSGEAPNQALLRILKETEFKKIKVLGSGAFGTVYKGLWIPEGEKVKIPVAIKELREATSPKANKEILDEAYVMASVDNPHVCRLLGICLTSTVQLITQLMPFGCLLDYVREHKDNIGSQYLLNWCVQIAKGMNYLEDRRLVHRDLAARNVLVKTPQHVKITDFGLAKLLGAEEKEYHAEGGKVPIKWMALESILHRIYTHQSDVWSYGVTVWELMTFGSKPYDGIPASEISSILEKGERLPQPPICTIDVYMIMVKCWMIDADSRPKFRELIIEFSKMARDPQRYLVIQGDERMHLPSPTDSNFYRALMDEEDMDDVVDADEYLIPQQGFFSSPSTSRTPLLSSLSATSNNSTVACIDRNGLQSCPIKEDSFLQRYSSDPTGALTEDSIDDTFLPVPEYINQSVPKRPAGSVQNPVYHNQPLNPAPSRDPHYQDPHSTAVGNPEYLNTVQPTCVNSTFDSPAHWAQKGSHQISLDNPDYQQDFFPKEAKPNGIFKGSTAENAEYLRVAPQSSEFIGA
# T8 sequence (P28482 whole entry): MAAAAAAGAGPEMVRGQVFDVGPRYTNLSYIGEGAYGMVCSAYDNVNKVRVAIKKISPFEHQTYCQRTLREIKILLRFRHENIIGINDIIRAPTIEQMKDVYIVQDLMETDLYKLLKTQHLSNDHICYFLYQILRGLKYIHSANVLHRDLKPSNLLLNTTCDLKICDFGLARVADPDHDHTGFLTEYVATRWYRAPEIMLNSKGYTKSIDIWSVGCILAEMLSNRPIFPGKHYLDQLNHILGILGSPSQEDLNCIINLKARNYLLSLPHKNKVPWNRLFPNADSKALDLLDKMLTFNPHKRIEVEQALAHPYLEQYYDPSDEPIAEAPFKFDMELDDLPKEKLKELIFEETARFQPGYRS
# T12 sequence (P42338 whole entry): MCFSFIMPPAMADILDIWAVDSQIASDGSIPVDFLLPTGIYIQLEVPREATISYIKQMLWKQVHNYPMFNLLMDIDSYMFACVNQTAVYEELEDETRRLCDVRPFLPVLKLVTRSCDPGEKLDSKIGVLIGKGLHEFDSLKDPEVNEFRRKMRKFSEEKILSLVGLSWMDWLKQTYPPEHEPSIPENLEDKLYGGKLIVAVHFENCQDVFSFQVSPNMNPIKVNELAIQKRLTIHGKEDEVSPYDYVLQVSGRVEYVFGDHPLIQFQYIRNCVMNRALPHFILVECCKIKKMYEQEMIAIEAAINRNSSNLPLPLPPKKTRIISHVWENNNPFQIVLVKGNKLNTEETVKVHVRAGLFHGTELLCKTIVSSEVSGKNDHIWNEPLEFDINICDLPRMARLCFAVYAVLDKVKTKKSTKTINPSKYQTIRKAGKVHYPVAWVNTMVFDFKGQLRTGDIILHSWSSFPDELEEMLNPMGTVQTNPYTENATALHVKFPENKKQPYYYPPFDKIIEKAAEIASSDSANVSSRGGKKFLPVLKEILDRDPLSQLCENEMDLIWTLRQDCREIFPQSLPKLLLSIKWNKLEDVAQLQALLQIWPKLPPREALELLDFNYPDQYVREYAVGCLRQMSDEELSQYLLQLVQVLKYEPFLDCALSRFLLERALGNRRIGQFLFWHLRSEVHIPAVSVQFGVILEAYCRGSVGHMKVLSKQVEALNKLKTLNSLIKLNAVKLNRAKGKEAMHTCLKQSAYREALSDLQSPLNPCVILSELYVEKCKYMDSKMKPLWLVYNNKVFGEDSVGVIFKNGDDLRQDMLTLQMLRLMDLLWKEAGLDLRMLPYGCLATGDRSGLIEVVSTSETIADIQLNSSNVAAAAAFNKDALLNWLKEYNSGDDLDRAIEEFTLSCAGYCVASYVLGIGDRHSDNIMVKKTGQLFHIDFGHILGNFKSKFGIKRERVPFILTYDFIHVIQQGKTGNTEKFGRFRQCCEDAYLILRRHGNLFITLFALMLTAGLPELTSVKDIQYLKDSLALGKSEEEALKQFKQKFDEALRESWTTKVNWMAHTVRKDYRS
# T7 sequence (P27361 whole entry): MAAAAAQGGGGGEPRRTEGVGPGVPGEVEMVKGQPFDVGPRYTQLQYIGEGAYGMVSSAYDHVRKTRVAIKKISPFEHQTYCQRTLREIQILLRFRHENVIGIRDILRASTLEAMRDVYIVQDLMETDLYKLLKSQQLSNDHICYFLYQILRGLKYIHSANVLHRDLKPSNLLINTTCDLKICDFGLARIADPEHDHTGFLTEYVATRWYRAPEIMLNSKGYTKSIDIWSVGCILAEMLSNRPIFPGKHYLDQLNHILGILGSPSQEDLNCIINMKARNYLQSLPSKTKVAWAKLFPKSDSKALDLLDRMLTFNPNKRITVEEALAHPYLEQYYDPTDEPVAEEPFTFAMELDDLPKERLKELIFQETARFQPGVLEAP
structure (smiles),measurement,setting,value
"Cc1cccc(CC(=O)N2CCc3c2ccc(-c2cn(C)c4ncnc(N)c24)c3F)n1 [GSK2656157, reference compound]",inhibition at 0.2 µM,[1],0%
same,inhibition at 2 µM,[1],4%
same,inhibition at 20 µM,[1],8%
same,inhibition at 0.2 µM,[2],24%
same,inhibition at 2 µM,[2],7%
same,inhibition at 20 µM,[2],0%
same,inhibition at 0.2 µM,[3],0%
same,inhibition at 2 µM,[3],33%
same,inhibition at 20 µM,[3],64%
same,inhibition at 0.2 µM,[4],18%
same,inhibition at 2 µM,[4],16%
same,inhibition at 20 µM,[4],50%
same,inhibition at 0.2 µM,[5],40%
same,inhibition at 2 µM,[5],22%
same,inhibition at 20 µM,[5],53%
same,inhibition at 0.2 µM,[6],0%
same,inhibition at 2 µM,[6],0%
same,inhibition at 20 µM,[6],0%
same,inhibition at 0.2 µM,[7],0%
same,inhibition at 2 µM,[7],17%
same,inhibition at 20 µM,[7],0%
same,inhibition at 0.2 µM,[8],0%
same,inhibition at 2 µM,[8],0%
same,inhibition at 20 µM,[8],0%
same,inhibition at 0.2 µM,[9],0%
same,inhibition at 2 µM,[9],16%
same,inhibition at 20 µM,[9],0%
same,inhibition at 0.2 µM,[10],0%
same,inhibition at 2 µM,[10],3%
same,inhibition at 20 µM,[10],6%
same,inhibition at 0.2 µM,[11],0%
same,inhibition at 2 µM,[11],8%
same,inhibition at 20 µM,[11],0%
same,inhibition at 0.2 µM,[12],0%
same,inhibition at 2 µM,[12],0%
same,inhibition at 20 µM,[12],0%
same,inhibition at 0.2 µM,[13],0%
same,inhibition at 2 µM,[13],30%
same,inhibition at 20 µM,[13],56%
same,inhibition at 0.2 µM,[14],0%
same,inhibition at 2 µM,[14],12%
same,inhibition at 20 µM,[14],23%
"Cc1cc(NC(=O)[C@H](O)c2cc(F)cc(F)c2)ccc1-c1cnc(N)c(C(=O)NC(C)C)c1 [LY4, 2-amino-5-[4-[[(2R)-2-(3,5-difluorophenyl)-2-hydroxy-acetyl]amino]-2-methyl-phenyl]-N-isopropyl-pyridine-3-carboxamide]",inhibition at 0.2 µM,[1],0%
same,inhibition at 2 µM,[1],0%
same,inhibition at 20 µM,[1],0%
same,inhibition at 0.2 µM,[2],0%
same,inhibition at 2 µM,[2],0%
same,inhibition at 20 µM,[2],13%
same,inhibition at 0.2 µM,[3],31%
same,inhibition at 2 µM,[3],0%
same,inhibition at 20 µM,[3],14%
same,inhibition at 0.2 µM,[4],30%
same,inhibition at 2 µM,[4],23%
same,inhibition at 20 µM,[4],16%
same,inhibition at 0.2 µM,[5],0%
same,inhibition at 2 µM,[5],0%
same,inhibition at 20 µM,[5],0%
same,inhibition at 0.2 µM,[6],0%
same,inhibition at 2 µM,[6],0%
same,inhibition at 20 µM,[6],4%
same,inhibition at 0.2 µM,[7],2%
same,inhibition at 2 µM,[7],18%
same,inhibition at 20 µM,[7],0%
same,inhibition at 0.2 µM,[8],0%
same,inhibition at 2 µM,[8],0%
same,inhibition at 20 µM,[8],1%
same,inhibition at 0.2 µM,[9],0%
same,inhibition at 2 µM,[9],32%
same,inhibition at 20 µM,[9],3%
same,inhibition at 0.2 µM,[10],0%
same,inhibition at 2 µM,[10],0%
same,inhibition at 20 µM,[10],0%
same,inhibition at 0.2 µM,[11],9%
same,inhibition at 2 µM,[11],0%
same,inhibition at 20 µM,[11],8%
same,inhibition at 0.2 µM,[12],0%
same,inhibition at 2 µM,[12],0%
same,inhibition at 20 µM,[12],12%
same,inhibition at 0.2 µM,[13],31%
same,inhibition at 2 µM,[13],0%
same,inhibition at 20 µM,[13],24%
same,inhibition at 0.2 µM,[14],0%
same,inhibition at 2 µM,[14],0%
same,inhibition at 20 µM,[14],0%
